Assay results as given in US11819512B2, “Solid forms of a CD73 inhibitor and the use thereof” (ARCUS BIOSCIENCES, INC., priority 2018, dated 2023).

Assays:
[1] = Hygroscopicity by dynamic vapor sorption (DVS); assay type: physicochemical; conditions: 25° C.
Experimental: A quantity of the crystalline material was analyzed by dynamic vapor sorption (DVS). The sample was subjected to a ramping profile from 40-90% RH at 10% increments, maintaining the sample at each step until a stable weight had been achieved at 25° C. After completion of the sorption cycle, the sample was dried using the same procedure to 0% RH followed by a second sorption cycle back to 40% RH. Two cycles were performed overall. The weight change during the sorption/desorption cycles were plotted, allowing for the hygroscopic nature of the sample to be determined. Significant hysteresis was observed, with the material retaining much larger quantities of water during the second sorption cycle as shown in FIG. 10. […] The amount of water in the sample at 90% relative humidity corresponds to the pentahydrate of the material.

[2] = Stability of crystalline material on storage (HPLC and XRPD); assay type: physicochemical; conditions: for purity by HPLC after storage: decrease from 99%
[3] = 40° C. at 75% relative humidity (RH) for one week

Structure (SMILES): C[C@H](Nc1cc(Cl)nc2c1cnn2[C@@H]1O[C@H](COP(=O)(O)CP(=O)(O)O)[C@@H](O)[C@H]1O)c1ccccc1F [crystalline material, [({[(2R,3S,4R,5R)-5-(6-chloro-4-{[(1S)-1-(2-fluorophenyl)ethyl]amino}-1H-pyrazolo[3,4-b]pyridin-1-yl)-3,4-dihydroxyoxolan-2-yl]methoxy}(hydroxy)phosphoryl)methyl]phosphonic Acid]
- hygroscopic nature ([1]; DVS): hygroscopic
- XRPD of the sample post-DVS ([1]; after two sorption/desorption cycles, 0-90% RH): loss of crystallinity and regeneration of amorphous material
- increase of water (weight) by DVS ([1]; at 90% relative humidity relative to 0% relative humidity): 13.2 % wt.
- crystallinity after storage ([2]; 25° C. at 60% relative humidity (RH) for one week): no change in crystallinity
- solid form by XRPD after storage [2, 3]: conversion to the amorphous material
- purity by HPLC after storage [2, 3]: 97.3%
- morphology by XRPD after storage ([2]; 80° C. for one week): no change in morphology
- purity by HPLC after storage ([2]; 80° C. for one week): 97.4%
